Data on three compounds can be found in US5556872A, “Histamine derivatives useful as immunomodulators” (The Board of Trustees of the Leland Stanford Junior …, priority 1995, dated 1996).

In one test the test system is H3. Briefly: Dominant interactions of congeners with histamine receptors: H3. In kind it is binding. The following applies: Human lymphocytes, monocytes and neutrophils.
The test system of test [1] is IgG antibody response to horse myoglobin (h-Mb). Kind of test: Inhibition of IgG and IgG subclass antibody response to horse myoglobin in immunized mice (anti-horse myoglobin ELISA). In kind it is in vivo, DBA/2 mice. The following applies: vs saline control mice. The method, then:
ELISA plates were coated with 10 ug/ml commercially available horse myoglobin (h-Mb) in PBS 50 ul/well overnight at 4 deg C. The plates were washed with PBS once. The plates were then coated with 50 ul BBA (1 mg/ml) and washed with PBS once. The plates were then coated with test serum diluted in PBS-Tween, 50 ul/well and incubated at 4 deg C. overnight. The plates were then washed with PBS-Tween three times. Anti-IgG (1:2000) was added and diluted with PBS-Tween. For the IgG antibody subclasses, anti-IgG1, anti-IgG2a, anti-IgG2b was diluted and added to selected wells. Incubation was at 4 deg C. for two hours. Washing was with PBS-Tween 2 times with 5 minutes between each wash. A 1 mg/ml OPD in citrate buffer solution pH5 was prepared and 10 ul of H2O2/10 ml was added to the buffer solution. 50 ul of buffer was added to each well and the plates were placed in the dark for about 10 minutes. The reaction was stopped with 50 ul of 5N H2SO4 in each well. The plates were then read on an Elisa reader.
The following immunization protocol was repeated several times. The results have been collected in FIGS. 1a-d.
This experiment was done using two groups of 2-6 DBA/2 mice (average weight 22 grams). One group of mice were given one treatment of compound 3 intravenously one day before antigen treatment (day-1) and two days following antigen treatment (day+2). The dose of compound 3 was approximately 36 mg/kg in 100 ul of PBS. The other group of mice was given a saline control in 100 ul PBS. On day 0 the two groups of mice were injected with 100 ug h-Mb in 100 ul CFA intravenously (i.v.). The mice were then boosted fourteen days later with 100 ug of h-Mb in 100 ul IFA. The mice were bled 30 days later.

In another test the target is H1 (Homo sapiens, UniProt P35367). Kind of test: Dominant interactions of congeners with histamine receptors: H1. The test is classed as binding.
Chain of H1 (P35367 whole entry): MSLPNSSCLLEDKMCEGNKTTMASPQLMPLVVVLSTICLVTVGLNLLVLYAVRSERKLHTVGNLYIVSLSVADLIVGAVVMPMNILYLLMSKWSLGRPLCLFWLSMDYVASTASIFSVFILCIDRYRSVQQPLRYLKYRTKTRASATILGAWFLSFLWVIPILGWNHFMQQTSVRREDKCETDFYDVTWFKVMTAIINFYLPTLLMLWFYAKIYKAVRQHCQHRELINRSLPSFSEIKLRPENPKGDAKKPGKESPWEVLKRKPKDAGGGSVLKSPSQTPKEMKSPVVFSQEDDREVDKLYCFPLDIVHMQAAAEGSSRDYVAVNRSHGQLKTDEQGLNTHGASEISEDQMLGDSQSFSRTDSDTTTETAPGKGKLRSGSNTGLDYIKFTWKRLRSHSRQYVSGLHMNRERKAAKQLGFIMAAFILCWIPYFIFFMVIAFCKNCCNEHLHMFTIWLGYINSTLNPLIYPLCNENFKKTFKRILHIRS
Another test has as its target H2 (Homo sapiens, UniProt P25021). Kind of test: Dominant interactions of congeners with histamine receptors: H2. In kind it is binding.
In the next test the test system is Hx. Kind of test: Dominant interactions of congeners with histamine receptors: Hx. In kind it is binding, Human.
The subject of another test is human Ts cells. The following applies: Khan et al. 1985, Sansoni et al. 1985; cited from earlier work.
Another test concerns murine NS cells. The settings on record: in vitro; cited from earlier work.
The subject of test [2] is phytohemagglutinin-induced Th proliferation. The following applies: pretreatment of human Ts cells with histamine; mediated via H2 receptors; cited from earlier work.
The subject of test [3] is pokeweed mitogen-induced B cell differentiation. The settings on record: pretreatment of human Ts cells with histamine; mediated via H2 receptors; cited from earlier work.
Setting [4] is: comparable experiment using Compound 1, FIG. 3.
Setting [5] is: compound 3 approx. 36 mg/kg i.v. day -1 and day +2, FIG. 1.

Chain of H2 (P25021 whole entry): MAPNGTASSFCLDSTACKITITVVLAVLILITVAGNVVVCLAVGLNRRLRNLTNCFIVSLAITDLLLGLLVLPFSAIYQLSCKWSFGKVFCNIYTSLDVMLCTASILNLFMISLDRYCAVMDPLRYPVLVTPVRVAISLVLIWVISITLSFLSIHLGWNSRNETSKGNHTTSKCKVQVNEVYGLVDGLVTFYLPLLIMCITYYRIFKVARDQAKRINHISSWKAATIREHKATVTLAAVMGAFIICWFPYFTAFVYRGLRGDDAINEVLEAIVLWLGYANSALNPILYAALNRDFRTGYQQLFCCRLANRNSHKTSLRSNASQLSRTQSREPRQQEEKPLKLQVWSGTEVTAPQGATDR

As for `CC(CCCCC(=O)Nc1ccc(C(F)(F)F)cc1)NCCc1c[nH]cn1` (stereo not shown) [Compound 1, His--NH--CHCH3--(CH2)4 CONH--phi--CF3], the H3 dominant interaction entry in the test with H3 was “AntiHx”. For the same compound, in test [1] (setting [4]), the IgG1 response result is listed as “lower”, the IgG2a response entry was “lower” and the IgG response entry is reported as “lower”.

For `O=C(CCCCCNCCc1c[nH]cn1)Nc1ccc(C(F)(F)F)cc1` [Compound 3, His--NH--(CH2)5 CONH--phi--CF3], the “H1 receptor activity (in words)” value on H1 is “not H1 receptor activity”. In addition, the “H2 receptor activity (in words)” value on H2 is “has been shown to have H2 receptor activity”. For the same compound, the “Hx activity (in words)” value in the test with Hx is recorded as “some Hx activity”. Further, in test [1] (setting [5]), the IgG1 response entry is listed as “lower”, the IgG2a response entry is reported as “lower”, the IgG2b response entry was “lower” and the “total IgG response to h-Mb” value is “much lower”.

As to `NCCc1c[nH]cn1` [Histamine], in the test with Hx (Human lymphocytes, monocytes and neutrophils), the Hx dominant interaction entry is listed as “AntiHx”. In addition, the “effect on human Ts cells” value with human Ts cells was “activates human Ts cells”. In addition, the “effect on suppressive ability of murine NS cells” value with murine NS cells is reported as “enhances the suppressive ability of murine NS cells in vitro”. The “phytohemagglutinin-induced Th proliferation” value in test [2] is “inhibited”. Moreover, in test [3], the “pokeweed mitogen-induced B cell differentiation” value is recorded as “inhibited”.
